Where a SMILES comes first, the peptide text is derived from it.
Assays:
[1] = Dansyl polymyxin B displacement assay (binding affinity for LPS); parameters: species or system Escherichia coli; conditions: for Imax: maximal displacement, 100% = that observed with polymyxin B; for IC50: peptide concentration reducing bound dansyl polymyxin B (10 μM) by 50% of maximal displacement, read-out: I50
Method: To determine whether invention peptides are able to interact with the LPS of Gram-negative bacterial outer membrane, the binding affinity of peptide for LPS was determined using a dansyl polymyxin B displacement assay (Moore et al. (1986) Antimicrobial Agents Chemother. 29:496-500). The assay uses dansyl polymyxin, a cationic probe that is highly fluorescent only when bound and LPS isolated from E. coli. UB1005. […] Maximal displacement of LPS was expressed as a percentage where 100% displacement of dansyl polymyxin B was taken as that observed with polymyxin B.

Human Red Blood Cells = experiment: Hemolytic assay; assay type: cell-based; conditions: red blood cells
Method: The toxicity of invention peptides can be assessed using a hemolytic assay in which the ability of the peptides to lyse human red blood cells is assessed (Zhang et al. (1999) Biochemistry 38:8102-8111; and Examples section).
Hemolytic activity of invention peptides was tested against human red blood cells. Freshly collected human blood treated with heparin was centrifuged to remove the buffy coat, and the erythrocytes thereby obtained were washed three times in saline (0.85% NaCl). Serial dilutions of the peptides in saline were prepared in round-bottomed microtiter plates using total volumes of 100 μl. Red blood cells were diluted with saline to 1/25 of a packed cell volume, and 50 μl of cells were added to each well. Plates, while rocking, were incubated at 37° C., and the concentration of the peptide required for lysis after 4 h was taken as the minimal hemolytic concentration.

[2] = LPS-induced endotoxemia in galactosamine-sensitized mice; assay type: in vivo; conditions: 200 μg peptide intraperitoneally, groups of 10 mice, up to 24 h
Method: Bacterial endotoxin (LPS) is highly toxic and can cause high mortality in both humans and animals when released during Gram-negative bacterial infection. Galactosamine-treated mice exposed to moderate does of endotoxin typically die from endotoxic shock within 17 hours following exposure. Invention peptides can be tested for their ability to protect mice against endotoxin-induced death (see Examples section). The anti-endotoxic activity of invention peptides also can be tested in an in vitro assay using a macrophage cell line (Gough et al. (1996) Infect. Immun. 64:4922-4927; and Examples section).
The ability of invention peptides to protect against LPS-induced endotoxemia was assessed in vivo. Mice (8-10 weeks old) were injected intraperitoneally with […] D-galactosamine (Dgal) to sensitize them to LPS according to the method of Galanos (Galanos et al. (1979) Proc. Natl. Acad. Sci., USA, 76:5939-5943). Endotoxic shock was induces by intraperitoneal injections of 3 μg/mL E. coli 111 :B4 LPS in phosphate-buffered saline (PBS). Invention peptides (200 μg/100 μl sterile water) were injected intraperitoneally at a separate site within 10 min of LPS injection, and survival was monitored up to 24 h following injection.

P. aeruginosa M2 = experiment: P. aeruginosa infection in neutropenic mouse model; assay type: in vivo; conditions: neutropenic CD-1 mice; for Mean Time to Death: 200 μg peptide intraperitoneally 30 min after infection; for Survival (%), P. aeruginosa infection: 200 μg peptide intraperitoneally, groups of 5 mice, assessed 24 to 72 hours
Method: Invention peptides were assayed for their ability to protect against P. aeruginosa infection in a neutropenic mouse mode. Female CD-1 mice, made neutropenic by three injections of cyclophosphamide (see Gough et al., (1996) Infect. Immun. 64:4922-4927) were injected intraperitoneally with a 100% lethal dose of P. aeruginosa M2 (approximately 200 organisms). Thirty minutes later, mice were injected intraperitoneally with invention peptides (200 μg/100 μl) Survival was assessed 24 to 72 hours later.

[3] = tested on: E. coli 0111:B4 LPS induced production of IL-6 in RAW macrophages; experiment: Reduction of LPS-induced IL-6 in RAW 264.7 macrophages (ELISA); assay type: cell-based, murine; conditions: for Inhibition of IL-6 (%): peptide 20 μg/ml, LPS 100 ng/ml, RAW 264.7, 6 hours
Method: (§1) The ability of invention peptides to reduce LPS-induced tumor necrosis factor (TNF) production was tested in an in vitro assay. The murine macrophage cell line RAW 264.7 was obtained from American Type Culture Collection (Manassas, Va.) and grown in DMEM medium supplemented with 10% fetal calf serum. The cells were plated at a density of 10^6 cells/well in 24 well plates, incubated overnight, then washed with fresh medium. E. coli 0111 :B4 (100 ng/ml) was added at time 0 to RAW macrophages. Invention peptides […]/m were added at time 0, 30 and 60 minutes and the cells were stimulated for 6 hours. Levels of TNF and interleukin-6 (IL-6) were measured after 6 hours.

[4] = tested on: intact cells of E. coli UB1005; experiment: NPN uptake assay, outer membrane permeabilization; assay type: cell-based, Escherichia coli; conditions: peptide concentration leading to 50% of maximal increase in NPN uptake
Method: The outer membrane permeabilization activity of invention peptides was determined by the 1-N-phenylnapthylamine (NPN) uptake assay of Loh et al. ((1984) Antimicor. Agents Chemother. 26:546-551), using intact cells of E. coli UB1005.
(§2) The cytoplasmic membrane depolarization activity of the peptides was determined (Wu and Hancock (1999) J. Biol. Chem. 274:29-35) using the membrane potential sensitive dye 3,3-dipropylthiacarbocyanine diSC35 (28) and E. coli DC2. Bacterial cells in mid-log phase were centrifuged, washed in 5 mM HEPES, pH 7.8, and resuspended in the same buffer to an OD600 of 0.05. A stock solution of diSC35 was added to a final concentration of 0.4 μM and quenching was allowed to occur at room temperature for 20-30 min. Then KCl was added to the cell suspension to a final concentration of 100 mM to equilibrate the cytoplasmic and external K^+ concentrations. A 2-mL cell suspension was placed in a 1 cm cuvette and the desired concentration of tested peptide was added. Changes in fluorescence due to the disruption of the membrane potential in the cytoplasmic membrane were continuously recorded using a Perkin-Elmer model 650-10S spectrofluorimeter at an excitation wavelength of 622 nm and an emission wavelength of 670 nm. The concentration of peptide leading to a 50% of maximal increase in NPN uptake was recorded as the P50.
Therefore, an increase in fluorescence in the presence of a peptide indicates the ability of peptide to permeabilize the bacterial outer membrane.

[5] = tested on: E. coli 0111:B4 LPS induced production of TNF-α in RAW macrophages; experiment: Reduction of LPS-induced TNF-α in RAW 264.7 macrophages (ELISA); assay type: cell-based, murine; conditions: for Inhibition of TNF-α (%): peptide 20 μg/ml, LPS 100 ng/ml, RAW 264.7, 6 hours
Method: as §1

E. coli DC2 = experiment: Cytoplasmic membrane depolarization, diSC35 assay; assay type: cell-based, Escherichia coli; conditions: 0.25 μg/ml (1×MIC)
Method: The arrowhead indicates the time at which 0.25 μg/ml peptide was added. PV5: SEQ ID NO:11; PV7: SEQ ID NO:4; and PV8: SEQ ID NO:3.
as §2

Compound	Imax [1] [%]	IC50 [1] [µM]	hemolytic activity (Human Red Blood Cells)	Survival (%), LPS-Endotoxemia [2] [%]	Mean Time to Death (P. aeruginosa M2) [h]	Survival (%), P. aeruginosa infection (P. aeruginosa M2) [%]	Inhibition of IL-6 (%) [3] [%]	P50 [4] [µg/mL]	Inhibition of TNF-α (%) [5] [%]	diSC35 dye release from cells (E. coli DC2)	inhibition of IL-6 production ([3]; 20 μg/ml)	inhibition of TNF-α production ([5]; 20 μg/ml)
Polymyxin B [reference compound]	100	5.6										
CC(C)[C@@H]1NC(=O)[C@H](CCCNC(=N)N)NC(=O)[C@H](Cc2ccccc2)NC(=O)[C@@H](NC(=O)[C@H](Cc2c[nH]c3ccccc23)NC(=O)[C@H](CCCNC(=N)N)NC(=O)[C@@H](N)Cc2ccccc2)CSSC[C@@H](C(=O)N[C@@H](CCCNC(=N)N)C(N)=O)NC(=O)[C@H](CCCCN)NC(=O)[C@H](Cc2ccc(O)cc2)NC(=O)[C@H](CCCNC(=N)N)NC(=O)[C@@H]2CSSC[C@H](NC1=O)C(=O)N[C@@H](Cc1ccc(O)cc1)C(=O)N[C@@H](CCCCN)C(=O)NCC(=O)N[C@@H](CCCNC(=N)N)C(=O)N2 [SEQ ID NO:3, FRWCFRVCYKGRCRYKCR] (HELM PEPTIDE1{F.R.W.C.F.R.V.C.Y.K.G.R.C.R.Y.K.C.R.[am]}$PEPTIDE1,PEPTIDE1,4:R3-17:R3|PEPTIDE1,PEPTIDE1,8:R3-13:R3$$$V2.0)	93	4.9	show hemolytic activity	20	>72	60	70 ± 6	3.9	55 ± 5			
CC(C)[C@@H]1NC(=O)[C@H](CCCNC(=N)N)NC(=O)[C@H](Cc2ccccc2)NC(=O)[C@@H](NC(=O)[C@H](Cc2c[nH]c3ccccc23)NC(=O)[C@H](CCCNC(=N)N)NC(=O)[C@@H](N)CCCNC(=N)N)CSSC[C@@H](C(=O)N[C@@H](CCCNC(=N)N)C(N)=O)NC(=O)[C@H](CCCCN)NC(=O)[C@H](CCCNC(=N)N)NC(=O)[C@H](Cc2ccc(O)cc2)NC(=O)[C@@H]2CSSC[C@H](NC1=O)C(=O)N[C@@H](Cc1ccc(O)cc1)C(=O)N[C@@H](CCCNC(=N)N)C(=O)NCC(=O)N[C@@H](CCCNC(=N)N)C(=O)N[C@@H](Cc1ccccc1)C(=O)N2 [SEQ ID NO:11, RRWCFRVCYRGRFCYRKCR] (HELM PEPTIDE1{R.R.W.C.F.R.V.C.Y.R.G.R.F.C.Y.R.K.C.R.[am]}$PEPTIDE1,PEPTIDE1,4:R3-18:R3|PEPTIDE1,PEPTIDE1,8:R3-14:R3$$$V2.0)	87	3	show hemolytic activity	50	57	40	91 ± 4	3.7	90 ± 6	unable to cause a significant level of dye release	best inhibitor	best inhibitor
CC(C)[C@@H]1NC(=O)[C@H](CCCNC(=N)N)NC(=O)[C@H](Cc2ccccc2)NC(=O)[C@@H](NC(=O)[C@H](Cc2c[nH]c3ccccc23)NC(=O)[C@H](CCCNC(=N)N)NC(=O)[C@@H](N)CCCNC(=N)N)CSSC[C@@H](C(=O)N[C@@H](CCCNC(=N)N)C(N)=O)NC(=O)[C@H](CCCCN)NC(=O)[C@H](Cc2ccc(O)cc2)NC(=O)[C@H](CCCNC(=N)N)NC(=O)[C@@H]2CSSC[C@H](NC1=O)C(=O)N[C@@H](Cc1ccc(O)cc1)C(=O)N[C@@H](CCCCN)C(=O)NCC(=O)N[C@@H](Cc1ccccc1)C(=O)N2 [SEQ ID NO:4, RRWCFRVCYKGFCRYKCR] (HELM PEPTIDE1{R.R.W.C.F.R.V.C.Y.K.G.F.C.R.Y.K.C.R.[am]}$PEPTIDE1,PEPTIDE1,4:R3-17:R3|PEPTIDE1,PEPTIDE1,8:R3-13:R3$$$V2.0)	76	5.7	show hemolytic activity	40	61	40	77 ± 6	4.1	61 ± 5			

Reference: US6337317B1, “Antimicrobial peptides and methods of use thereof” (priority 2000, dated 2002)
